From patent publication US12685735B2 (Foghorn Therapeutics Inc., priority 2020, dated 2026)

Key:
BRG-1 = BRG-1 (Homo sapiens, UniProt P51532); assay: ATPase catalytic activity assay of BRG-1 (ADP-Glo); assay type: biochemical; conditions: ATPase catalytic activity, ADP-Glo; for IC50: read-out: BRG1 IC50 (μM)*; for Emax: read-out: BRG1 Max % Inhibition
Procedure, shortened: (§1)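 Once the enzyme reaction finished, residual ATP is removed with ADP-Glo Reagent over 40 minutes at room temperature. Kinase Detection Reagent then converts product ADP into ATP during a 60-minute room-temperature incubation, and the luciferase signal is read.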

BRM = BRM (Homo sapiens, UniProt P51531); assay: ATPase catalytic activity assay of BRM (ADP-Glo); assay type: biochemical; conditions: for IC50: read-out: BRM IC50 (μM)*
Procedure, shortened: as §1

Sequence of BRG-1 (P51532 whole entry): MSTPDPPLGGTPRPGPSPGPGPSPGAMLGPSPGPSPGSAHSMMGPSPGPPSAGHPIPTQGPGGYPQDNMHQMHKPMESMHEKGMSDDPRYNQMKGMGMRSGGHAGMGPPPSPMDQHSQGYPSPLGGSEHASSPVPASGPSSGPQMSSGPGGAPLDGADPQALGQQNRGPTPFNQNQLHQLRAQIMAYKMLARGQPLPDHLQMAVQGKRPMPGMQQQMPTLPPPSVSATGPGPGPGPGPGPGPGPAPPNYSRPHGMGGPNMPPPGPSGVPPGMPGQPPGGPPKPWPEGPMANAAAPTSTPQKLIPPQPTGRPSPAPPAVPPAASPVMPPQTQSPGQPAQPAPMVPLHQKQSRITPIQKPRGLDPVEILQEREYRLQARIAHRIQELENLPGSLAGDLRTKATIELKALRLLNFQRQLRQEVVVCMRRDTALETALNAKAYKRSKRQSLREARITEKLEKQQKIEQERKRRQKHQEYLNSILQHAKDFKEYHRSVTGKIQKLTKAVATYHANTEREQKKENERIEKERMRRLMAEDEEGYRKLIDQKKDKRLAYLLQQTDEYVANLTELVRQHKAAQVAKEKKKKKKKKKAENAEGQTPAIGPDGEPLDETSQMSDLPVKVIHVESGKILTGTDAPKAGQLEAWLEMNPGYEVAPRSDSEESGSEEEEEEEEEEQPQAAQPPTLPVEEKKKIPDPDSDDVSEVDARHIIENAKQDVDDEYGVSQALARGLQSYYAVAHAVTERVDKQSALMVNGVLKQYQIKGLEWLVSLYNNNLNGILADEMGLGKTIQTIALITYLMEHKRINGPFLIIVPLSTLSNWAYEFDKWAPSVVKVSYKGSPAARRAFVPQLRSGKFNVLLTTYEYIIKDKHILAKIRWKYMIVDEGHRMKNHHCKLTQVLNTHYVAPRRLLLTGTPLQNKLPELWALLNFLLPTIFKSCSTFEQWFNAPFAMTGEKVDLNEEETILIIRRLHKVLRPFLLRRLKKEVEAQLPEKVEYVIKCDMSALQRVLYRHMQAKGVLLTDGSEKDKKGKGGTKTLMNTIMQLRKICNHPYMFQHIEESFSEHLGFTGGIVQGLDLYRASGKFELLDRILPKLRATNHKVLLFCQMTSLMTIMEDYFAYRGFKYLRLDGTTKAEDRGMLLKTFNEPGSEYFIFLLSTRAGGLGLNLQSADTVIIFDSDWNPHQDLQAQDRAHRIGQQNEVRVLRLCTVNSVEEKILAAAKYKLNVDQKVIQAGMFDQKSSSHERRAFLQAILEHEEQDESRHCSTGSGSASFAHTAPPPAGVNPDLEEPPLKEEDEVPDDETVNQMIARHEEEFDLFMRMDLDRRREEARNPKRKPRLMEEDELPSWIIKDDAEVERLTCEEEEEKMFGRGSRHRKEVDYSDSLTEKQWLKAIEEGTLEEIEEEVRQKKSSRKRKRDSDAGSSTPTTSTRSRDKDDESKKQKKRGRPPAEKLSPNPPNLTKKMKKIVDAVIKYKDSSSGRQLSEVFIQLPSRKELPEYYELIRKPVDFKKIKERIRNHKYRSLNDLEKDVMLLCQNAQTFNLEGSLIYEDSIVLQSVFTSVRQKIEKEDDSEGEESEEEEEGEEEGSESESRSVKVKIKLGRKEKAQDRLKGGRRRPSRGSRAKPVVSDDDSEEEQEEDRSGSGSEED
Sequence of BRM (P51531 whole entry): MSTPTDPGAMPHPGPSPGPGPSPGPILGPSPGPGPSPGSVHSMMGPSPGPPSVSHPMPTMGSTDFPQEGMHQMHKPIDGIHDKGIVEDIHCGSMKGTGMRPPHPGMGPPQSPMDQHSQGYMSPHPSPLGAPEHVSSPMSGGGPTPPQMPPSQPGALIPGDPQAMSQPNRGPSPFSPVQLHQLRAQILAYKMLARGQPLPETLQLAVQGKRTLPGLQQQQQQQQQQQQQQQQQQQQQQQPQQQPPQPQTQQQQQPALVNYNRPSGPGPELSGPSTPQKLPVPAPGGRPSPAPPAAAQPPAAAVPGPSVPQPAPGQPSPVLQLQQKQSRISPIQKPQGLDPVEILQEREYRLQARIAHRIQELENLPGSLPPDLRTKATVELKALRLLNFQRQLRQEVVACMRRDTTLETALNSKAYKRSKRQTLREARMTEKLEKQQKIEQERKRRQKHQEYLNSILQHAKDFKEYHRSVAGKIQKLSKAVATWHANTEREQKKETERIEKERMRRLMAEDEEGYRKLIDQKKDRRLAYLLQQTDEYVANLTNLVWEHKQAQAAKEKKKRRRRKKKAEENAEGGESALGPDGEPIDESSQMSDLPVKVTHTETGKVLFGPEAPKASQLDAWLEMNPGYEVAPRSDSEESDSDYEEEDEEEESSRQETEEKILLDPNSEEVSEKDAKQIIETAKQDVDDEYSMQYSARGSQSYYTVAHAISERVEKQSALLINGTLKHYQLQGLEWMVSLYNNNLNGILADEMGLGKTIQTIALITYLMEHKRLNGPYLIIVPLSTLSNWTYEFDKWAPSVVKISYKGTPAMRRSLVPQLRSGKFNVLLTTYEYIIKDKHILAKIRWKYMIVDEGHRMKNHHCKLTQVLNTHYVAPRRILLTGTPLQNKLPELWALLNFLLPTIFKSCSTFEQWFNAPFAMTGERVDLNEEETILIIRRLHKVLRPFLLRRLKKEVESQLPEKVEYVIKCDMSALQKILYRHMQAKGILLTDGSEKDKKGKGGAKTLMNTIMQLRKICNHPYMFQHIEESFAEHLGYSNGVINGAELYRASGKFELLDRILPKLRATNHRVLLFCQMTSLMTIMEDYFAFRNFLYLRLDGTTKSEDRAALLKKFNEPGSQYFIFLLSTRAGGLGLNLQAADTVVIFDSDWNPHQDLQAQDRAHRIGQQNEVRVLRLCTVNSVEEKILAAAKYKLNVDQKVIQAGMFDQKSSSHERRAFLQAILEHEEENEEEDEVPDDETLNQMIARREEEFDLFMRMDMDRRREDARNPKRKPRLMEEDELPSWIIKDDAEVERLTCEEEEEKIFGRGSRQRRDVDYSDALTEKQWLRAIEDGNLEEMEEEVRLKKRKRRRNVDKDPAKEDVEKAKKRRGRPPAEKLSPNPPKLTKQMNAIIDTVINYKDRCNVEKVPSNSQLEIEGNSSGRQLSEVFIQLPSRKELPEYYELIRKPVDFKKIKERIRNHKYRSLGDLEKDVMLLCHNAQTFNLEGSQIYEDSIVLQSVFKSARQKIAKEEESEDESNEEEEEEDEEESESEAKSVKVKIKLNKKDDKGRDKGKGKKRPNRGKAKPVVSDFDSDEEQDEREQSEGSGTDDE

IC50 (BRG-1) [µM] | Emax (BRG-1) [%] | BRM Max % Inhibition (BRM) [%] | IC50 (BRM) [µM] | SMILES
1 to 5 | > 70 | >95 | 0.1 to 1 | C[C@]1(CO)CCc2c(C(=O)NCC(=O)Nc3nc(-c4cccc(-c5ccncc5)c4)cs3)cccc21 [Compound 226, (S)-1-(hydroxymethyl)-1-methyl-N-(2-oxo-2-((4-(3-(pyridin-4-yl)phenyl)thiazol-2-yl)amino)ethyl)-2,3-dihydro-1H-indene-4-carboxamide]
< 0.1 | > 95 | >95 | < 0.1 | Cc1cc(-c2cccc(-c3csc(NC(=O)CNC(=O)c4ccc5c(c4)[C@@](C)(CO)CC5)n3)c2)nc(C)n1 [Compound 227, (3S)-N-[2-[[4-[3-(2,6-dimethylpyrimidin-4-yl)phenyl]thiazol-2-yl]amino]-2-oxo-ethyl]-3-(hydroxymethyl)-3-methylindane-5-carboxamide]
< 0.1 | > 95 | >95 | < 0.1 | Cc1cc(-c2cccc(-c3csc(NC(=O)CNC(=O)c4ccc5c(c4)[C@](C)(CO)CC5)n3)c2)nc(C)n1 [Compound 228, (3R)-N-[2-[[4-[3-(2,6-dimethylpyrimidin-4-yl)phenyl]thiazol-2-yl]amino]-2-oxo-ethyl]-3-(hydroxymethyl)-3-methyl-indane-5-carboxamide]
0.1 to 1 | > 80 | >95 | < 0.1 | Cc1cc(-c2cccc(-c3csc(NC(=O)CNC(=O)c4cccc(C(C)(C)CO)c4)n3)n2)ncn1 [Compound 230, 3-(2-hydroxy-1,1-dimethyl-ethyl)-N-[2-[[4-[6-(6-methylpyrimidin-4-yl)-2-pyridyl]thiazol-2-yl]amino]-2-oxo-ethyl]benzamide]
0.1 to 1 | > 80 | >95 | < 0.1 | Cc1cc(-c2cccc(-c3csc(NC(=O)CNC(=O)c4ccc5c(c4)[C@@](C)(CO)CCC5)n3)c2)cc(C)n1 [Compound 231, (S)-N-(2-((4-(3-(2,6-dimethylpyridin-4-yl)phenyl)thiazol-2-yl)amino)-2-oxoethyl)-8-(hydroxymethyl)-8-methyl-5,6,7,8-tetrahydronaphthalene-2-carboxamide]
0.1 to 1 | > 80 | >95 | < 0.1 | Cc1cc(-c2cccc(-c3csc(NC(=O)CNC(=O)c4ccc5c(c4)[C@](C)(CO)CCC5)n3)c2)cc(C)n1 [Compound 232, (R)-N-(2-((4-(3-(2,6-dimethylpyridin-4-yl)phenyl)thiazol-2-yl)amino)-2-oxoethyl)-8-(hydroxymethyl)-8-methyl-5,6,7,8-tetrahydronaphthalene-2-carboxamide]
0.1 to 1 | > 80 | >95 | < 0.1 | CC1(CO)CCc2ccc(C(=O)NCC(=O)Nc3nc(-c4cccc(-c5cccc(C#N)c5)c4)cs3)cc21 (centres unmarked) [Compound 233, N-[2-[[4-[3-(3-cyanophenyl)phenyl]thiazol-2-yl]amino]-2-oxo-ethyl]-3-(hydroxymethyl)-3-methyl-indane-5-carboxamide]
0.1 to 1 | > 90 | >95 | < 0.1 | Cc1ccc(C(=O)NCC(=O)Nc2nc(-c3cccc(N4C[C@@H](C)O[C@@H](C)C4)n3)cs2)cc1C(C)(C)CO [Compound 237, N-(2-((4-(6-((cis)-2,6-dimethylmorpholino)pyridin-2-yl)thiazol-2-yl)amino)-2-oxoethyl)-3-(1-hydroxy-2-methylpropan-2-yl)-4-methylbenzamide]
0.1 to 1 | > 90 | >95 | < 0.1 | Cc1ccc(C(=O)NCC(=O)Nc2nc(-c3cccc(N4C[C@@H](C)O[C@@H](C)C4)c3)cs2)cc1C(C)(C)CO [Compound 238, N-(2-((4-(3-((cis)-2,6-dimethylmorpholino)phenyl)thiazol-2-yl)amino)-2-oxoethyl)-3-(1-hydroxy-2-methylpropan-2-yl)-4-methylbenzamide]
0.1 to 1 | > 90 | >95 | < 0.1 | C[C@@H]1CN(c2cccc(-c3csc(NC(=O)CNC(=O)c4ccc(Cl)c(C(C)(C)CO)c4)n3)n2)C[C@H](C)O1 [Compound 241, 4-chloro-N-[2-[[4-[6-[(cis)-2,6-dimethylmorpholin-4-yl]-2-pyridyl]thiazol-2-yl]amino]-2-oxo-ethyl]-3-(2-hydroxy-1,1-dimethyl-ethyl)benzamide]
1 to 5 | > 50 | >80 | 0.1 to 1 | CCC(C)(CO)c1cccc(C(=O)NCC(=O)Nc2nc(-c3cccc(-c4ccncc4)c3)cs2)c1 (centres unmarked) [Compound 242, 3-[1-(hydroxymethyl)-1-methyl-propyl]-N-[2-oxo-2-[[4-[3-(4-pyridyl)phenyl]thiazol-2-yl]amino]ethyl]benzamide]
1 to 5 | > 50 | >80 | 0.1 to 1 | C[C@]1(CN)CCc2c(C(=O)NCC(=O)Nc3nc(-c4cccc(-c5ccncc5)c4)cs3)cccc21 [Compound 243, (1S)-1-(aminomethyl)-1-methyl-N-[2-oxo-2-[[4-[3-(4-pyridyl)phenyl]thiazol-2-yl]amino]ethyl]indane-4-carboxamide]

The next lines start with the compound.

SMILES | IC50 (BRG-1) [µM] | Emax (BRG-1) [%] | BRM Max % Inhibition (BRM) [%] | IC50 (BRM) [µM]
Cc1nccc(-c2cccc(-c3csc(NC(=O)CNC(=O)c4ccc5c(c4)[C@](C)(CO)CCC5)n3)n2)n1 [Compound 212, (4R)-4-(hydroxymethyl)-4-methyl-N-[2-[[4-[6-(2-methylpyrimidin-4-yl)-2-pyridyl]thiazol-2-yl]amino]-2-oxo-ethyl]tetralin-6-carboxamide] | > 5 | < 30 | >70 | 0.1 to 1
Cc1nccc(-c2cccc(-c3csc(NC(=O)CNC(=O)c4ccc5c(c4)[C@@](C)(CO)CC5)n3)n2)n1 [Compound 214] | 0.1 to 1 | > 80 | >90 | 0.1 to 1
Cc1nccc(-c2cccc(-c3csc(NC(=O)CNC(=O)c4ccc5c(c4)[C@](C)(CO)CC5)n3)n2)n1 [Compound 215] | 0.1 to 1 | > 80 | >95 | < 0.1
Cc1cc(-c2cccc(-c3csc(NC(=O)CNC(=O)c4ccc(Cl)c(C(C)(C)CO)c4)n3)n2)ncn1 [Compound 216, 4-chloro-3-(2-hydroxy-1,1-dimethyl-ethyl)-N-[2-[[4-[6-(6-methylpyrimidin-4-yl)-2-pyridyl]thiazol-2-yl]amino]-2-oxo-ethyl]benzamide] | 0.1 to 1 | > 95 | >95 | < 0.1
C[C@@H]1CN(c2cccc(-c3csc(NC(=O)CNC(=O)c4cccc(C(C)(C)C)c4)n3)c2)C[C@H](C)O1 [Compound 217, 3-tert-butyl-N-[2-[[4-[3-[(cis)-2,6-dimethylmorpholin-4-yl]phenyl]thiazol-2-yl]amino]-2-oxo-ethyl]benzamide] | 0.1 to 1 | > 90 | >95 | < 0.1
C[C@@H]1CN(c2cccc(-c3csc(NC(=O)CNC(=O)c4ccc5c(c4)[C@](C)(CO)CC5)n3)c2)C[C@H](C)O1 [Compound 218, (R)-N-(2-((4-(3-((cis)-2,6-dimethylmorpholino)phenyl)thiazol-2-yl)amino)-2-oxoethyl)-3-(hydroxymethyl)-3-methyl-2,3-dihydro-1H-indene-5-carboxamide] | 1 to 5 | > 80 | >90 | 0.1 to 1
C[C@@H]1CN(c2cccc(-c3csc(NC(=O)CNC(=O)c4ccc5c(c4)[C@@](C)(CO)CC5)n3)c2)C[C@H](C)O1 [Compound 219, (S)-N-(2-((4-(3-((cis)-2,6-dimethylmorpholino)phenyl)thiazol-2-yl)amino)-2-oxoethyl)-3-(hydroxymethyl)-3-methyl-2,3-dihydro-1H-indene-5-carboxamide] | 0.1 to 1 | > 90 | >95 | < 0.1
Cc1nccc(-c2cccc(-c3csc(NC(=O)CNC(=O)c4cccc(C(C)(C)CO)c4)n3)n2)n1 [Compound 222, 3-(2-hydroxy-1,1-dimethyl-ethyl)-N-[2-[[4-[6-(2-methylpyrimidin-4-yl)-2-pyridyl]thiazol-2-yl]amino]-2-oxo-ethyl]benzamide] | 0.1 to 1 | > 80 | >95 | < 0.1
C[C@@H]1CN(c2cccc(-c3csc(NC(=O)CNC(=O)c4ccc5c(c4)[C@](C)(CO)CC5)n3)n2)C[C@H](C)O1 [Compound 223, (R)-N-(2-((4-(6-((cis)-2,6-dimethylmorpholino)pyridin-2-yl)thiazol-2-yl)amino)-2-oxoethyl)-3-(hydroxymethyl)-3-methyl-2,3-dihydro-1H-indene-5-carboxamide] | 1 to 5 | > 80 | >95 | < 0.1
C[C@@H]1CN(c2cccc(-c3csc(NC(=O)CNC(=O)c4ccc5c(c4)[C@@](C)(CO)CC5)n3)n2)C[C@H](C)O1 [Compound 224, (3S)-N-[2-[[4-[6-[(cis)-2,6-dimethylmorpholin-4-yl]-2-pyridyl]thiazol-2-yl]amino]-2-oxo-ethyl]-3-(hydroxymethyl)-3-methyl-indane-5-carboxamide] | 0.1 to 1 | > 95 | >95 | < 0.1
Cc1cc(-c2cccc(-c3csc(NC(=O)CNC(=O)c4ccc5c(c4)[C@](C)(CN)CCC5)n3)c2)cc(C)n1 [Compound 225, (4R)-4-(aminomethyl)-N-[2-[[4-[3-(2,6-dimethyl-4-pyridyl)phenyl]thiazol-2-yl]amino]-2-oxo-ethyl]-4-methyl-tetralin-6-carboxamide] | > 5 | > 40 | >80 | 0.1 to 1
